Assays:
[1] = NETTER-2 worst post-baseline hematology abnormalities based on CTC grades (Safety Set); assay type: in vivo, human; settings: randomized treatment period; for Worst post-baseline abnormality: Hemoglobin (g/L)-Decrease / Worst post-baseline abnormality: Hemoglobin (g/L)-Increase / Worst post-baseline abnormality: Leukocytes (10E9/L)-Decrease / Worst post-baseline abnormality: Leukocytes (10E9/L)-Increase / Worst post-baseline abnormality: Lymphocytes (10E9/L)-Decrease / Worst post-baseline abnormality: Lymphocytes (10E9/L)-Increase / Worst post-baseline abnormality: Neutrophils (10E9/L)-Decrease / Worst post-baseline abnormality: Platelets (10E9/L)-Decrease: Safety Set
From the text: (§1) The laboratory assessments require that blood samples for hematology and blood chemistry, and a urine sample for urinalysis are taken. Laboratory assessments will be performed at the investigational site.
(§2) Blood tests performed 4 weeks after any treatment cannot serve as baseline values for the next treatment.
(§3) All laboratory data will be listed by treatment group, subject, and visit/time and if normal ranges are available abnormalities will be flagged. Summary statistics will be provided by treatment and visit/time. Shift tables using the low/normal/high/(low and high) classification will be used to compare baseline to the worst on-treatment value.
(§4) Grading of laboratory values will be assigned programmatically as per NCI Common Terminology Criteria for Adverse Events (CTCAE) version 5.0 or current version. The calculation of CTCAE grades will be based on the observed laboratory values only, clinical assessments will not be taken into account.
(§5) The following summaries will be generated separately for hematology, and biochemistry tests: • 1. Listing of all laboratory data with values flagged to show the corresponding CTCAE grades if applicable and the classifications relative to the laboratory normal ranges • 2. For laboratory tests where grades are defined by CTCAE, • 3. Worst post-baseline CTCAE grade (regardless of the baseline status). Each subject will be counted only once for the worst grade observed post-baseline. • 4. Shift tables using CTCAE grades to compare baseline to the worst on-treatment value • 5. For laboratory tests where grades are not defined by CTCAE, • 6. Shift tables using the low/normal/high/(low and high) classification to compare baseline to the worst on-treatment value.

midgut carcinoid tumors = settings: cited from earlier work
[2] = system: Grade 2 and Grade 3 advanced GEP-NET; assay: NETTER-2 Progression-Free Survival (PFS), central review using RECIST 1.1; assay type: in vivo, human; settings: Full Analysis Set; for Kaplan-Meier event-free estimates (95% CI): PFS
Method: The primary efficacy end-point is PFS as measured by objective tumor response, which is determined by RECIST criteria, Version 1.1 (Eisenhauer, et al., 2009). Tumor response will be assessed locally and centrally.
It is recommended that for each patient identical acquisition and reconstruction protocols be used at all time-points. Central, blinded, real-time IRC (Independent Review Committee) assessment will be conducted for determining progressive disease. Changes from randomization date will be assessed at week 16±1, week 24±1 and then every 12±1 weeks until the PFS primary analysis End-Point has been reached, then until Week 72 after randomization, unless the patient progresses or dies.
The primary endpoint of the study is progression-free survival (PFS), defined as the time from the date of randomization to the date of the first documented progression or death due to any cause. PFS will be assessed via central review according to RECIST 1.1.
The stratification will be based on following randomization stratification factors (grade: G2 vs. G3; and tumor origin: pNET vs other origin).
Analyses will be based on the FAS population according to the randomized treatment group and strata assigned at randomization. The PFS distribution will be estimated using the Kaplan-Meier method, and Kaplan-Meier curves, median and associated 95% confidence intervals will be presented for each treatment group. The hazard ratio for PFS will be calculated, along with its 95% confidence interval, from a stratified Cox model using the same stratification factors as for the log-rank test.

[3] = NETTER-1 control arm, high dose (60 mg); cited from earlier work
[4] = NETTER-2 worst post-baseline biochemistry abnormalities based on CTC grades (Safety Set); assay type: in vivo, human; settings: All grades (CTCAE v5.0); randomized treatment period; Safety Set
From the text: as §1, §2, §3, §4, §5

Compound: C[C@@H](O)[C@@H]1NC(=O)[C@H](CCCCN)NC(=O)[C@@H](Cc2c[nH]c3ccccc23)NC(=O)[C@H](Cc2ccccc2)NC(=O)[C@@H](NC(=O)[C@H](N)Cc2ccccc2)CSSC[C@@H](C(=O)N[C@H](CO)[C@@H](C)O)NC1=O [Octreotide LAR, octreotide]
- Worst post-baseline abnormality: Hemoglobin (g/L)-Decrease ([1]; All grades (CTCAE v5.0)): 42 (57.5) n (%)
- Worst post-baseline abnormality: Hemoglobin (g/L)-Increase ([1]; All grades (CTCAE v5.0)): 2 (2.7) n (%)
- Worst post-baseline abnormality: Leukocytes (10E9/L)-Decrease ([1]; All grades (CTCAE v5.0)): 15 (20.5) n (%)
- Worst post-baseline abnormality: Leukocytes (10E9/L)-Increase ([1]; All grades (CTCAE v5.0)): 0 n (%)
- Worst post-baseline abnormality: Lymphocytes (10E9/L)-Decrease ([1]; All grades (CTCAE v5.0)): 45 (61.6) n (%)
- Worst post-baseline abnormality: Lymphocytes (10E9/L)-Increase ([1]; All grades (CTCAE v5.0)): 3 (4.1) n (%)
- Worst post-baseline abnormality: Neutrophils (10E9/L)-Decrease ([1]; All grades (CTCAE v5.0)): 9 (12.3) n (%)
- Worst post-baseline abnormality: Platelets (10E9/L)-Decrease ([1]; All grades (CTCAE v5.0)): 15 (20.5) n (%)
- Worst post-baseline abnormality: Hemoglobin (g/L)-Decrease ([1]; Grade 3/4 (CTCAE v5.0)): 2 (2.7) n (%)
- Worst post-baseline abnormality: Hemoglobin (g/L)-Increase ([1]; Grade 3/4 (CTCAE v5.0)): 0 n (%)
- Worst post-baseline abnormality: Leukocytes (10E9/L)-Decrease ([1]; Grade 3/4 (CTCAE v5.0)): 0 n (%)
- Worst post-baseline abnormality: Leukocytes (10E9/L)-Increase ([1]; Grade 3/4 (CTCAE v5.0)): 0 n (%)
- Worst post-baseline abnormality: Lymphocytes (10E9/L)-Decrease ([1]; Grade 3/4 (CTCAE v5.0)): 2 (2.7) n (%)
- Worst post-baseline abnormality: Lymphocytes (10E9/L)-Increase ([1]; Grade 3/4 (CTCAE v5.0)): 0 n (%)
- Worst post-baseline abnormality: Neutrophils (10E9/L)-Decrease ([1]; Grade 3/4 (CTCAE v5.0)): 0 n (%)
- Worst post-baseline abnormality: Platelets (10E9/L)-Decrease ([1]; Grade 3/4 (CTCAE v5.0)): 0 n (%)
- Grade 3/4 hematologic lab abnormality: lymphocytes decrease [1]: 2.7%
- confirmed events (disease progressions RECIST 1.1 centrally assessed or deaths) (midgut carcinoid tumors; NETTER-1): 70
- median PFS (midgut carcinoid tumors; NETTER-1): 8.5 months
- median time free from relapse (midgut carcinoid tumors; NETTER-1 control arm, high dose (60 mg)): 8.4 months
- Kaplan-Meier event-free estimates (95% CI) ([2]; 4 months): 73.5 (61.2, 82.4) %
- Kaplan-Meier event-free estimates (95% CI) ([2]; 6 months): 64.5 (51.8, 74.6) %
- Kaplan-Meier event-free estimates (95% CI) ([2]; 9 months): 46.0 (33.4, 57.7) %
- Kaplan-Meier event-free estimates (95% CI) ([2]; 12 months): 42.4 (30.0, 54.3) %
- Kaplan-Meier event-free estimates (95% CI) ([2]; 15 months): 36.4 (24.3, 48.5) %
- Kaplan-Meier event-free estimates (95% CI) ([2]; 18 months): 29.2 (17.7, 41.7) %
- Kaplan-Meier event-free estimates (95% CI) ([2]; 24 months): 19.5 (9.1, 32.7) %
- PFS Events [2]: 46 (61.3) n (%)
- PFS events: Deaths [2]: 5 (6.7) n (%)
- PFS events: Progression [2]: 41 (54.7) n (%)
- Median PFS (95% CI) ([2]; central review, RECIST 1.1): 8.5 (7.7, 13.8) months
- PFS 25th percentile (95% CI) ([2]; central review, RECIST 1.1): 3.9 (3.7, 5.7) months
- PFS 75th percentile (95% CI) ([2]; central review, RECIST 1.1): 19.3 (13.8, NE) months
- Median PFS (95% CI) ([2]; central review, RECIST 1.1, listed as High-dose Octreotide): 8.5 months
- Median PFS (95% CI) ([2]; central review, RECIST 1.1, listed as high-dose Octreotide): 8.5 (7.7, 13.8) months
- side effects [3]: without notable side effects
- Worst post-baseline abnormality: Alanine Aminotransferase (U/L)-Increase [4]: 38 (52.1) n (%)
- Worst post-baseline abnormality: Albumin (g/L)-Decrease [4]: 17 (23.3) n (%)

Source: patent US20250099634A1, “METHOD OF TREATING CANCER” (Novartis AG, priority 2023, published 2025)
